pEC50: −log10 of the molar value.
Legend:
[1] = Ludy et al. 2011; cited from earlier work
Human subjects [2] = experiment: Comparative taste testing; type: in vivo; details: 4.8 ppm capsaicin or 350 ppm cinnamaldehyde
Procedure: Human subjects were administered a composition comprising 4.8 ppm capsaicin or 350 ppm cinnamaldehyde. […] 87.9% of the participants judged capsaicin intense to very intense, compared to only 20.5% for cinnamaldehyde. To achieve a similar effect on fat oxidation of capsaicin and cinnamaldehyde, the dose of capsaicin is about 1.5 times less than the maximum that can be used as a flavor (7 ppm according to Fenaroli's Handbook), and the dose of cinnamaldehyde is about 17.5 times less than the maximum that can be used as a flavor (6191.0 ppm according to Fenaroli's Handbook).

Human subjects [3] = experiment: Nose temperature after ingestion; type: in vivo; details: fifteen minutes following ingestion
Procedure: The nose temperature of the subjects was analyzed over the fifteen minutes following ingestion of the various compounds.

Human subjects [4] = experiment: Energy expenditure after ingestion (indirect calorimetry); type: in vivo
Procedure: Human subjects were administered placebo, a cooling flavor, capsaicin or cinnamaldehyde. The energy expenditure was measured over the eighty minutes following ingestion. […] The increased sympathetic activity identified by measuring the facial temperature (increased blood flow on the chin) might explain the increased energy expenditure measured by indirect calorimetry.

TRPA1 [5] = details: read-out: EC50 of TRPA1 activation; cited from earlier work
Human subjects [6] = experiment: Chin temperature after ingestion (sympathetic nervous system activity); type: in vivo
Procedure: The chin temperature of the subjects was measured over the eighty minutes following ingestion of the various compounds. […] The increased sympathetic activity identified by measuring the facial temperature (increased blood flow on the chin) might explain the increased energy expenditure measured by indirect calorimetry.

Human subjects [7] = experiment: Postprandial fat oxidation after ingestion; type: in vivo
Procedure: The postprandial fat oxidation was measured over the 90 minutes following ingestion of the various compounds.

obese mice = experiment: Pre-clinical study, chronic ingestion in food; type: in vivo; details: 0.2% in food
Procedure: The findings of the inventors were especially surprising in that a low dose (1.25 mg/kg body weight per day) of cinnamaldehyde at a flavoring range can provide an effect after a single ingestion. In a pre-clinical study by the inventors, the dose of cinnamaldehyde was about 250 mg/kg body weight per day, with chronic ingestion (effect on body weight gain and insulin sensitivity).

TRPA1 [8] = biological target: T1, TRPA1 (Mus musculus, UniProt Q8BLA8); experiment: Pre-clinical study, single dose: gastric emptying and short term food intake; type: in vivo; details: single dose 250 mg/kg bw
T1 construct: endogenous in cells; host or cells: living animals of the pre-clinical study (probably mice)
T1 sequence (Q8BLA8 whole entry): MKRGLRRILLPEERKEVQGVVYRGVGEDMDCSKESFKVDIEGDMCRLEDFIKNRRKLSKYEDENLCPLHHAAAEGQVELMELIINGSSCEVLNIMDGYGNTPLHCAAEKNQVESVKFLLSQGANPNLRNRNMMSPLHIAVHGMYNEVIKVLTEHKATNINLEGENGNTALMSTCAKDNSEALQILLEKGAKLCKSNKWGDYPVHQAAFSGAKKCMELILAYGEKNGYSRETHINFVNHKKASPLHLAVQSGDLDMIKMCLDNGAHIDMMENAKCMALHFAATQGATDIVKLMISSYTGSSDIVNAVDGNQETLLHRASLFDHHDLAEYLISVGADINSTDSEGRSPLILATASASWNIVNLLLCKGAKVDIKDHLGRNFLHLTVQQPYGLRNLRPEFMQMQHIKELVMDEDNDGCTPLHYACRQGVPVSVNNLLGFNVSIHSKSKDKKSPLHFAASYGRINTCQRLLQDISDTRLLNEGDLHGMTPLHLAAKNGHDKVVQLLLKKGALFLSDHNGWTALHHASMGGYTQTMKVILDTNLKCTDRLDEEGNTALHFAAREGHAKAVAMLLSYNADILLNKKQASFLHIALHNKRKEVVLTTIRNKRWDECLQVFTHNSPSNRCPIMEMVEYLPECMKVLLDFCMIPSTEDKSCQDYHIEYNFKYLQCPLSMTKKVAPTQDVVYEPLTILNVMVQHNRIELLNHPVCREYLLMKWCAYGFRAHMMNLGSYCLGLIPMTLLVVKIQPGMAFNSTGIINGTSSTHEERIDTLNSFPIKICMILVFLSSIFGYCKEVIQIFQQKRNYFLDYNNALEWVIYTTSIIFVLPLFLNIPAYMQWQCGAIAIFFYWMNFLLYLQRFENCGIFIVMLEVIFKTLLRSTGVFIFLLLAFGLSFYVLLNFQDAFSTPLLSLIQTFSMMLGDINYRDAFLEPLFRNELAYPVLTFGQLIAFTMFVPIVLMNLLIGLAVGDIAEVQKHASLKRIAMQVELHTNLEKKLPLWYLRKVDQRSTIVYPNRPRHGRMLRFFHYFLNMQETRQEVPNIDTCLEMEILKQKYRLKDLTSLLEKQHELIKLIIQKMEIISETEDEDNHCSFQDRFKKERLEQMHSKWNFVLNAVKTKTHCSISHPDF

TRPV1 = TRPV1 (Homo sapiens, UniProt Q8NER1); details: cited from earlier work
TRPV1, sequence (Q8NER1 whole entry, species assumed): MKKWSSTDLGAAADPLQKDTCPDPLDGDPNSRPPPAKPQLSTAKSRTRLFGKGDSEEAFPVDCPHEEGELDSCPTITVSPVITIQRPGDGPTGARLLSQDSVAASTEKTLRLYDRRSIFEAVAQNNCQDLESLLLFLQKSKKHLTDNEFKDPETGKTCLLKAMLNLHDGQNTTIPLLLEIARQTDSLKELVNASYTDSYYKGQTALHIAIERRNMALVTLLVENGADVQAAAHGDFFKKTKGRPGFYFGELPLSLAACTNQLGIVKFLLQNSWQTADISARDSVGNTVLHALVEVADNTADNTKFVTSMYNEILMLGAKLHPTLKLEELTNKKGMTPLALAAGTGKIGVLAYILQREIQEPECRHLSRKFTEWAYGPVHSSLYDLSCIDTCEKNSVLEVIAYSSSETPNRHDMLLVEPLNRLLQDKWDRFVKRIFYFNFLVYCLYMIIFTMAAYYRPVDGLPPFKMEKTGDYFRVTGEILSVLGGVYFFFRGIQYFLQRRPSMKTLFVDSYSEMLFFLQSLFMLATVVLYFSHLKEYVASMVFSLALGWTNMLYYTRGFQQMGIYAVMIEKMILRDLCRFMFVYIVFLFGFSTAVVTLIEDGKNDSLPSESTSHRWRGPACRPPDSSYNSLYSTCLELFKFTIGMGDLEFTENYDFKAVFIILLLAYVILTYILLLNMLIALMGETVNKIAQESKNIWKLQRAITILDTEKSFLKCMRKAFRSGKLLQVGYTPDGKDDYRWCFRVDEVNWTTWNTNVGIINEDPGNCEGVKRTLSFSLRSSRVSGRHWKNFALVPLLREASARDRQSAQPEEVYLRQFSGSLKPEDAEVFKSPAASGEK

TRPM8 = TRPM8 (Homo sapiens, UniProt Q7Z2W7); details: cited from earlier work
TRPM8, sequence (Q7Z2W7 whole entry, species assumed): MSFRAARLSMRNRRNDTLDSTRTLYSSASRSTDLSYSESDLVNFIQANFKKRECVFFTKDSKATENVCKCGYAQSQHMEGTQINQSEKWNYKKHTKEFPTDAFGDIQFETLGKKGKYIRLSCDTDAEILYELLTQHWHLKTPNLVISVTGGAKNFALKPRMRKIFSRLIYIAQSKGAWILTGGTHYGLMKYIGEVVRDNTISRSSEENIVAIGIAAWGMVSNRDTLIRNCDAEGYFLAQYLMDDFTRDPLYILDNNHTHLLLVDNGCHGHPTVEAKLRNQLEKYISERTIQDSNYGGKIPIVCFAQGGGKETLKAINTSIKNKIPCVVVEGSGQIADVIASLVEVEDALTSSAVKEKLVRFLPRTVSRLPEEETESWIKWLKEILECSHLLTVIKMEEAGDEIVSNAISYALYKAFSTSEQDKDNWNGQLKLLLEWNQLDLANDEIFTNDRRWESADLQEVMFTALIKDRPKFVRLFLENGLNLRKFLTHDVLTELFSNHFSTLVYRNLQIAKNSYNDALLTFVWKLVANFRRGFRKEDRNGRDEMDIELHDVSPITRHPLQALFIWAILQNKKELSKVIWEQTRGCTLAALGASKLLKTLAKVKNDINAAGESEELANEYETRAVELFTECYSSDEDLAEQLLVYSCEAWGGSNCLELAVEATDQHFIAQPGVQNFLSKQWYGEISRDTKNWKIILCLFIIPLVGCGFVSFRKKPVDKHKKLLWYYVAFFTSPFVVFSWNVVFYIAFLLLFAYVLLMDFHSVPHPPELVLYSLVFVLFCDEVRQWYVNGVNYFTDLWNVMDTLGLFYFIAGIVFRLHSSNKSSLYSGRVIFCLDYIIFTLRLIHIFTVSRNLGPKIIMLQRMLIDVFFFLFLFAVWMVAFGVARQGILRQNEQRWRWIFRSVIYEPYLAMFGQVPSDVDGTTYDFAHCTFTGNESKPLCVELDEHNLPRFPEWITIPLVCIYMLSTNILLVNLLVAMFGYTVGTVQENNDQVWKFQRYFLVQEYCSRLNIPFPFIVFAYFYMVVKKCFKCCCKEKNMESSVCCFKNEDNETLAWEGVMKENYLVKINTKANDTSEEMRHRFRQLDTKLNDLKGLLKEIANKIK

[9] = flavoring level of cinnamaldehyde judged significantly less intense than capsaicin

| Compound | efficient dose for increasing energy expenditure and fat oxidation [1] | participants who judged the taste intense to very intense (Human subjects [2]) | nose temperature (Human subjects [3]) | impact on energy expenditure compared to capsaicin (Human subjects [4]; [9]) | energy expenditure compared to placebo (Human subjects [4]; human subjects, eighty minutes following ingestion, time course and AUC) | pEC50 (TRPA1 [5]) | impact on sympathetic nervous system activity compared to capsaicin (Human subjects [6]; [9]) | chin temperature relative to baseline (Human subjects [6]; human subjects, eighty minutes following ingestion) | effect on fat oxidation compared to capsaicin (Human subjects [7]; [9]) | postprandial fat oxidation compared to placebo (Human subjects [7]; human subjects, 90 minutes following ingestion, time course and AUC) | lean mass gain (obese mice) | body weight gain (obese mice; about 250 mg/kg bw/day) | food intake (obese mice; about 250 mg/kg bw/day) | insulin sensitivity (obese mice; about 250 mg/kg bw/day) | fat mass gain (obese mice; p 0.06) | short term food intake (TRPA1 [8]) | gastric emptying (TRPA1 [8]; through TRPA1 activation) | activation of TRPV1 (TRPV1) | activation of TRPM8 (TRPM8) |
| --- | --- | --- | --- | --- | --- | --- | --- | --- | --- | --- | --- | --- | --- | --- | --- | --- | --- | --- | --- |
| COc1cc(CNC(=O)CCCC/C=C/C(C)C)ccc1O [capsaicin] | ≥ 20 mg | 87.9% | increase nose temperatures |  |  |  |  |  |  |  |  |  |  |  |  |  |  |  |  |
| O=CC=Cc1ccccc1 [cinnamaldehyde] |  |  | increase nose temperatures | significantly higher impact | increased | ~4.22 | significantly higher impact | increases chin temperature for a prolonged time | equivalent effect | maintained at higher levels | no effect | reduces body weight gain | without affecting their food intake | improves their insulin sensitivity | tendency to decrease | reduced short term food intake | delayed gastric emptying | not | not |
